From ChEMBL document CHEMBL3991601, “The target landscape of clinical kinase drugs” (Science, 2017)
The source made the active and inactive calls. Cut-off read from the data, not from the text of the source, for most assays here: actives have a measured Kd and inactives only a lower limit.

Columns and labels:
[1] = molecular target: Cyclin-dependent kinase 13 (Homo sapiens, UniProt Q14004)
[2] = molecular target: T1, Serine/threonine-protein kinase 4 (Homo sapiens, UniProt Q13043)
T1 sequence (Q13043 whole entry): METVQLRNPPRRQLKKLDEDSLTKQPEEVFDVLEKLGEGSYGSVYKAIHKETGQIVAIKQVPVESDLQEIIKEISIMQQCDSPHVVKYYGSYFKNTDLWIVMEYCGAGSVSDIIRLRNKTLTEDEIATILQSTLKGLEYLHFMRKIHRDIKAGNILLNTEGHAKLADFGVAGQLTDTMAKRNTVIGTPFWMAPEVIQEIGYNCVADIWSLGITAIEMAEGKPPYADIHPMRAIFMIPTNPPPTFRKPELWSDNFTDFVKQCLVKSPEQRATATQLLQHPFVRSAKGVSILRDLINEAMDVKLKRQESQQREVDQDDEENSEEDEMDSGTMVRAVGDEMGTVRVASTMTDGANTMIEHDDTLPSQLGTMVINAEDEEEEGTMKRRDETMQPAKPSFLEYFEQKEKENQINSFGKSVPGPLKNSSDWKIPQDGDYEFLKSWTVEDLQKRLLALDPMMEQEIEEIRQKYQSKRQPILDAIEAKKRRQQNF

[3] = molecular target: Serine/threonine-protein kinase PAK 2 (Homo sapiens, UniProt Q13177)
Ephrin type-A receptor 2 = Ephrin type-A receptor 2 (Homo sapiens, UniProt P29317)
Myosin-14 = Myosin-14 (Homo sapiens, UniProt Q7Z406)
[4] = molecular target: T2, Serine/threonine-protein kinase Nek9 (Homo sapiens, UniProt Q8TD19)
T2 sequence (Q8TD19 whole entry): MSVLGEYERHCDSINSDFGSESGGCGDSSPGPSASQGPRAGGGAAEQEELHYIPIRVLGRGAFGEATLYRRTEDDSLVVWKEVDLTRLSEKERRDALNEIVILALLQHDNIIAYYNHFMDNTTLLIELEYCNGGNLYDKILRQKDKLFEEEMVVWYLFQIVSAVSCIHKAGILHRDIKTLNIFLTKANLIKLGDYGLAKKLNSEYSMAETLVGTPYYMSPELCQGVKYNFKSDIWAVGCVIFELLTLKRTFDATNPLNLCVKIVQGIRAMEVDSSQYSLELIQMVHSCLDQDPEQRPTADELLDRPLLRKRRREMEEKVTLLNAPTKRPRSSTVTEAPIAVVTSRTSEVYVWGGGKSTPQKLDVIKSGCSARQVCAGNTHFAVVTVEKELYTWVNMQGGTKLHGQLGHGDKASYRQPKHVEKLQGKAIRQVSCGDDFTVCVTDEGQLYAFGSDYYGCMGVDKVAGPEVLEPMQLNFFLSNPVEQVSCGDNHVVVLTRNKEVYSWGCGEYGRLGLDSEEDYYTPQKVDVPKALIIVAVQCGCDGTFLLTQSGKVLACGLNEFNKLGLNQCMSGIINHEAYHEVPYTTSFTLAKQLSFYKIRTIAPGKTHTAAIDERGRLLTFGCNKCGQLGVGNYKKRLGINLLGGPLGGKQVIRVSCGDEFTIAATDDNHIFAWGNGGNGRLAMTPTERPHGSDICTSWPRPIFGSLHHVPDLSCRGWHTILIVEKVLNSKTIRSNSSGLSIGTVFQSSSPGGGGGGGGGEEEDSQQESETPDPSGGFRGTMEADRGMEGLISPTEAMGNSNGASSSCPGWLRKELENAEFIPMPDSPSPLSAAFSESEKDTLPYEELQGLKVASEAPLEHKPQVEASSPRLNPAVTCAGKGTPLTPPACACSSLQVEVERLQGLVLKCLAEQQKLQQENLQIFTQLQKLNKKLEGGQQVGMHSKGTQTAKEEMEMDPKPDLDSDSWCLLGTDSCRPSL

[5] = molecular target: Serine/threonine-protein kinase MRCK alpha (Homo sapiens, UniProt Q5VT25)
Midasin = Midasin (Homo sapiens, UniProt Q9NU22)
[6] = molecular target: Rho-associated protein kinase 1 (Homo sapiens, UniProt Q13464)
[7] = molecular target: Inosine-5'-monophosphate dehydrogenase 2 (Homo sapiens, UniProt P12268)
[8] = molecular target: Tyrosine-protein kinase Fyn (Homo sapiens, UniProt P06241)
[9] = molecular target: Serine/threonine-protein kinase N2 (Homo sapiens, UniProt Q16513)
[10] = molecular target: Ribosomal protein S6 kinase beta-1 (Homo sapiens, UniProt P23443)
Activated CDC42 kinase 1 = Activated CDC42 kinase 1 (Homo sapiens, UniProt Q07912)
[11] = molecular target: RAC-gamma serine/threonine-protein kinase (Homo sapiens, UniProt Q9Y243)

Measured: Kd
Note: in the data inactive means no Kd found up to 30 µM.

Chain of Ribosomal protein S6 kinase beta-1 (P23443 whole entry): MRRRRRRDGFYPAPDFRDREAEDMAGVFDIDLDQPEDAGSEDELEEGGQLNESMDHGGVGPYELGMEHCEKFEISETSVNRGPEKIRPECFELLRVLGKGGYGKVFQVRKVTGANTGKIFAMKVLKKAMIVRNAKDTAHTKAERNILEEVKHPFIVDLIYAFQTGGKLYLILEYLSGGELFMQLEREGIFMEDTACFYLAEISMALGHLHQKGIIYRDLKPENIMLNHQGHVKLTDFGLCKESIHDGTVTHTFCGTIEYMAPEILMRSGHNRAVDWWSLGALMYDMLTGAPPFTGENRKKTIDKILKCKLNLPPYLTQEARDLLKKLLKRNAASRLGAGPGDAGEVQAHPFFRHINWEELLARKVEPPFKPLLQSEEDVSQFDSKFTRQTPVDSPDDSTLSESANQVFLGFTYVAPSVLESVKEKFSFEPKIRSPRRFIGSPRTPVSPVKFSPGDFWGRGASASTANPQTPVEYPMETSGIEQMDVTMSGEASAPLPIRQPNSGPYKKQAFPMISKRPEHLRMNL
Chain of Rho-associated protein kinase 1 (Q13464 whole entry): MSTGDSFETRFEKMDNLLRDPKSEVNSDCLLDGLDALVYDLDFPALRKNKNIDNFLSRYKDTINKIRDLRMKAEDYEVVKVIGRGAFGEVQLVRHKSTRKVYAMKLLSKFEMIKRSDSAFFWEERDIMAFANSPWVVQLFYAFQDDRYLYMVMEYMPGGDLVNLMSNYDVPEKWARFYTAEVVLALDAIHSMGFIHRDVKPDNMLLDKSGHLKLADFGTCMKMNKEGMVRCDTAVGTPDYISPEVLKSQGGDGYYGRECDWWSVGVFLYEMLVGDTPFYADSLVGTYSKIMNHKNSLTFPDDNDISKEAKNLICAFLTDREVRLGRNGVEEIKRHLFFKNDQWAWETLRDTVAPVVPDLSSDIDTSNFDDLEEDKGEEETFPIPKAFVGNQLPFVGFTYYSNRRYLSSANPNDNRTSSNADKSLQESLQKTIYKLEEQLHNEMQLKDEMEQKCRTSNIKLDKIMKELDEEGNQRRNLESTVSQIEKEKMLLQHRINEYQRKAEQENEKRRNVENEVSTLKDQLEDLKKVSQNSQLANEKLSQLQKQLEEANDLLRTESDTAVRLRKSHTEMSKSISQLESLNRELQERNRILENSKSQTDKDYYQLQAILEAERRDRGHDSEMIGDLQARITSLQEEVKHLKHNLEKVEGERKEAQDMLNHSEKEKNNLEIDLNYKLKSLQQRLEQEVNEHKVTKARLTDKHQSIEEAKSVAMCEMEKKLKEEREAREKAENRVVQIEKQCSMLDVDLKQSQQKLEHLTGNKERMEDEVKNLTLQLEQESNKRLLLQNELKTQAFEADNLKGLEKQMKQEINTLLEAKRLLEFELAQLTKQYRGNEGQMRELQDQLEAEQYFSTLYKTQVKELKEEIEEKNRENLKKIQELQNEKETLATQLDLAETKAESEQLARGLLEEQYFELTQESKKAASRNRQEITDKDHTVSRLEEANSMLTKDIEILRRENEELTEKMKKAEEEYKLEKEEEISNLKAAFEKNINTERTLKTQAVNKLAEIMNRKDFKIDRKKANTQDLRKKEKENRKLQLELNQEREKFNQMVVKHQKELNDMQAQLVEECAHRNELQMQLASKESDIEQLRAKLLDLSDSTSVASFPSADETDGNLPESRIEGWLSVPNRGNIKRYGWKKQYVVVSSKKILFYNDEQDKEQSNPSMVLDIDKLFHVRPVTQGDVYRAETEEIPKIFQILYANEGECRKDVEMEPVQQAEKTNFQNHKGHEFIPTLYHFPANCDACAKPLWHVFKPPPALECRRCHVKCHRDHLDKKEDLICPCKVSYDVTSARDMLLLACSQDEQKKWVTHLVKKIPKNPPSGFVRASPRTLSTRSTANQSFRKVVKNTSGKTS
Chain of Cyclin-dependent kinase 13 (Q14004 whole entry): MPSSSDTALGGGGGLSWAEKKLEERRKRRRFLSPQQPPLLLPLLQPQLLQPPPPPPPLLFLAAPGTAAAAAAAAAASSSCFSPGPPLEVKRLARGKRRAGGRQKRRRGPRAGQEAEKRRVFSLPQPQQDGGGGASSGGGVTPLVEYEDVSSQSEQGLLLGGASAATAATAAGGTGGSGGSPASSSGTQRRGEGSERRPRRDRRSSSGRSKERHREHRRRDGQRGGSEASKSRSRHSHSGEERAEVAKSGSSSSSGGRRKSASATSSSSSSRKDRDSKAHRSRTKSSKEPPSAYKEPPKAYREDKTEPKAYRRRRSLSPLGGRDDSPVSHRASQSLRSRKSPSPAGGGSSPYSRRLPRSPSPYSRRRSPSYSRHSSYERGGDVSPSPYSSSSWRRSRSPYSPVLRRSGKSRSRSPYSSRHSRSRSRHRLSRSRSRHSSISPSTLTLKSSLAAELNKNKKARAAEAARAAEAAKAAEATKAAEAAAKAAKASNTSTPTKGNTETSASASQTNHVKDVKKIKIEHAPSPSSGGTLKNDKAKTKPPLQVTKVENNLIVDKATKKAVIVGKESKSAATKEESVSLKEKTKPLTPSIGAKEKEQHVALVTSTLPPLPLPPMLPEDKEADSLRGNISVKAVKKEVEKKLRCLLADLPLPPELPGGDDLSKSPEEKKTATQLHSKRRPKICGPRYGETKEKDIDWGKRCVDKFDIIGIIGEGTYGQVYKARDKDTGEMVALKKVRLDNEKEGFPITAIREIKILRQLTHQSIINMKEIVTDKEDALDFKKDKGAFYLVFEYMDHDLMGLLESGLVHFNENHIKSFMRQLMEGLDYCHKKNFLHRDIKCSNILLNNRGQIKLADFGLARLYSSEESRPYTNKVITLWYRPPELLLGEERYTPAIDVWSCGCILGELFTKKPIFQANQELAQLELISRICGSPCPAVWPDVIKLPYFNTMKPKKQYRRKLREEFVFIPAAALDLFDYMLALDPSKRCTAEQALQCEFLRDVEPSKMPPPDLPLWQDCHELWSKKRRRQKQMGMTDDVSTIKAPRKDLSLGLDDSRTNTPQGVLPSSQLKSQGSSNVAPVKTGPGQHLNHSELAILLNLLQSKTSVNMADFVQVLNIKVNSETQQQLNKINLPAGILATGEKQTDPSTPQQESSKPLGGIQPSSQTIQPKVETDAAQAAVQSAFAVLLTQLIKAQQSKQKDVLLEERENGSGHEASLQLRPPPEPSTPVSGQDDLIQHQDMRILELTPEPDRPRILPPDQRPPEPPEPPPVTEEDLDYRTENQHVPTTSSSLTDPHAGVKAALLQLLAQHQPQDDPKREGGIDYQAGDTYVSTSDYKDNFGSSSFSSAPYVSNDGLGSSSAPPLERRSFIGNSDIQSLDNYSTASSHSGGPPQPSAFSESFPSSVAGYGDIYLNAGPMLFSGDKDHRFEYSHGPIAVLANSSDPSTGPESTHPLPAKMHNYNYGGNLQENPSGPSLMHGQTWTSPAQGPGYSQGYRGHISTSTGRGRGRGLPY
Chain of Serine/threonine-protein kinase N2 (Q16513 whole entry): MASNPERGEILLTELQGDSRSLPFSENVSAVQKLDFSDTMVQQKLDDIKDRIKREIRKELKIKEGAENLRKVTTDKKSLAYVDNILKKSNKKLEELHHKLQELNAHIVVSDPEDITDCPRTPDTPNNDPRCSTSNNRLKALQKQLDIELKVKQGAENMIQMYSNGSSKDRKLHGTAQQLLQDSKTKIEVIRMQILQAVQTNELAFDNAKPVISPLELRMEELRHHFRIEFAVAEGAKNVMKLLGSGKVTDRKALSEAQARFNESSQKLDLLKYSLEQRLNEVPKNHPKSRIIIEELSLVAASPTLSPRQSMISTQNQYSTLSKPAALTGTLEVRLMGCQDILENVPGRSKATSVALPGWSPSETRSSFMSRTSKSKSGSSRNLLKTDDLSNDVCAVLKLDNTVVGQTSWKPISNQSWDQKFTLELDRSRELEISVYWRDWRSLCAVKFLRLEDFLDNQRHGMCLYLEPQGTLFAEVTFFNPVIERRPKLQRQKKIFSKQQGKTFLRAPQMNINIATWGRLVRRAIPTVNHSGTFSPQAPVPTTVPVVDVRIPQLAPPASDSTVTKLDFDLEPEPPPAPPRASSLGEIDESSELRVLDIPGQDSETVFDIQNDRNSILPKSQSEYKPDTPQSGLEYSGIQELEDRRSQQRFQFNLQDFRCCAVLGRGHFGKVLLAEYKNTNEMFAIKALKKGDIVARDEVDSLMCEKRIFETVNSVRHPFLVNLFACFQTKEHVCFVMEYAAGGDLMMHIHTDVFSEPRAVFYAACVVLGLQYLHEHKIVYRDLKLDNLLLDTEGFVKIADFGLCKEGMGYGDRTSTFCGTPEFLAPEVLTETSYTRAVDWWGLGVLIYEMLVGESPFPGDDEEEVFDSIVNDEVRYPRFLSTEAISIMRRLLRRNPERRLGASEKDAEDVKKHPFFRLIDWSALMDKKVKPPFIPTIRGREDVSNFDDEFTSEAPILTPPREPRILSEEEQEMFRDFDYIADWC
Chain of RAC-gamma serine/threonine-protein kinase (Q9Y243 whole entry): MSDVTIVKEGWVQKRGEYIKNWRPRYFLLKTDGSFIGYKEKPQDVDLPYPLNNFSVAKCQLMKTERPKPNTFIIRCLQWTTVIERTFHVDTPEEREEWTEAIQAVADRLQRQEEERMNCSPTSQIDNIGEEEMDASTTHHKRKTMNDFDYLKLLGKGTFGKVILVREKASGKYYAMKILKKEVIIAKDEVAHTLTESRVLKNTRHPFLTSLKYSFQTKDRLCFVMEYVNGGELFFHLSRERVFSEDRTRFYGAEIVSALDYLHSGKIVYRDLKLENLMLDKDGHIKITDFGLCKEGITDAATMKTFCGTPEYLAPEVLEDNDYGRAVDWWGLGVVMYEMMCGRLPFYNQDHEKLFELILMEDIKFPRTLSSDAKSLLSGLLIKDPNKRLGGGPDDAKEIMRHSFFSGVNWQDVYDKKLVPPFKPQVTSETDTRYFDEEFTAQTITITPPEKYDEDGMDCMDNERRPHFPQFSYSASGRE

Cc1cccc(-c2nn3c(c2-c2ccnc4ccc(C(N)=O)cc24)CCC3)n1 [GALUNISERTIB]
inactive: [1] > 30 µM | [2] > 30 µM | [3] > 30 µM | Ephrin type-A receptor 2 > 30 µM | Myosin-14 > 30 µM | [4] > 30 µM | [5] > 30 µM | Midasin > 30 µM | [6] > 30 µM | [7] > 30 µM | [8] > 30 µM | [9] > 30 µM | [10] > 30 µM | Activated CDC42 kinase 1 > 30 µM | [11] > 30 µM

CN(C[C@@H]1COCCO1)S(=O)(=O)Nc1ccc2ccc3ncc(-c4cnn(C)c4)cc3c(=O)c2c1 [MK-2461]
inactive: [1] > 30 µM | [2] > 30 µM | [3] > 30 µM | Ephrin type-A receptor 2 > 30 µM | Myosin-14 > 30 µM | [4] > 30 µM | [5] > 30 µM | Midasin > 30 µM | [6] > 30 µM | [7] > 30 µM | [8] > 30 µM | [9] > 30 µM | [10] > 30 µM | Activated CDC42 kinase 1 > 30 µM | [11] > 30 µM

Cn1cc(-c2cnc3ccc4ccc(CS(=O)(=O)NCc5ccccn5)cc4c(=O)c3c2)cn1 [MK-8033]
inactive: [1] > 30 µM | [2] > 30 µM | [3] > 30 µM | Ephrin type-A receptor 2 > 30 µM | Myosin-14 > 30 µM | [4] > 30 µM | [5] > 30 µM | Midasin > 30 µM | [6] > 30 µM | [7] > 30 µM | [8] > 30 µM | [9] > 30 µM | [10] > 30 µM | Activated CDC42 kinase 1 > 30 µM | [11] > 30 µM

COc1ncc(-c2ccc3nccc(-c4ccnnc4)c3c2)cc1NS(=O)(=O)c1ccc(F)cc1F [OMIPALISIB]
inactive: [1] > 30 µM | [2] > 30 µM | [3] > 30 µM | Ephrin type-A receptor 2 > 30 µM | Myosin-14 > 30 µM | [4] > 30 µM | [5] > 30 µM | Midasin > 30 µM | [6] > 30 µM | [7] > 30 µM | [8] > 30 µM | [9] > 30 µM | [10] > 30 µM | Activated CDC42 kinase 1 > 30 µM | [11] > 30 µM

Cc1cnc(NC(=O)Nc2cc(Br)c(C)cc2OC[C@@H]2CNCCO2)cn1 [RABUSERTIB]
inactive: [1] > 30 µM | [2] > 30 µM | [3] > 30 µM | Ephrin type-A receptor 2 > 30 µM | Myosin-14 > 30 µM | [4] > 30 µM | [5] > 30 µM | Midasin > 30 µM | [6] > 30 µM | [7] > 30 µM | [8] > 30 µM | [9] > 30 µM | [10] > 30 µM | Activated CDC42 kinase 1 > 30 µM | [11] > 30 µM

CO[C@H]1C[C@@H]2CC[C@@H](C)[C@@](O)(O2)C(=O)C(=O)N2CCCC[C@H]2C(=O)O[C@H]([C@H](C)C[C@@H]2CC[C@@H](OP(C)(C)=O)[C@H](OC)C2)CC(=O)[C@H](C)/C=C(\C)[C@@H](O)[C@@H](OC)C(=O)[C@H](C)C[C@H](C)/C=C/C=C/C=C/1C [RIDAFOROLIMUS]
inactive: [1] > 30 µM | [2] > 30 µM | [3] > 30 µM | Ephrin type-A receptor 2 > 30 µM | Myosin-14 > 30 µM | [4] > 30 µM | [5] > 30 µM | Midasin > 30 µM | [6] > 30 µM | [7] > 30 µM | [8] > 30 µM | [9] > 30 µM | [10] > 30 µM | Activated CDC42 kinase 1 > 30 µM | [11] > 30 µM

Cn1cc(-c2cnn3c(N)c(Br)c([C@@H]4CCCNC4)nc23)cn1 [SCH-900776]
inactive: [1] > 30 µM | [2] > 30 µM | [3] > 30 µM | Ephrin type-A receptor 2 > 30 µM | Myosin-14 > 30 µM | [4] > 30 µM | [5] > 30 µM | Midasin > 30 µM | [6] > 30 µM | [7] > 30 µM | [8] > 30 µM | [9] > 30 µM | [10] > 30 µM | Activated CDC42 kinase 1 > 30 µM | [11] > 30 µM

CO[C@H]1C[C@@H]2CC[C@@H](C)[C@@](O)(O2)C(=O)C(=O)N2CCCC[C@H]2C(=O)O[C@H]([C@H](C)C[C@@H]2CC[C@@H](O)[C@H](OC)C2)CC(=O)[C@H](C)/C=C(\C)[C@@H](O)[C@@H](OC)C(=O)[C@H](C)C[C@H](C)/C=C/C=C/C=C/1C [SIROLIMUS]
inactive: [1] > 30 µM | [2] > 30 µM | [3] > 30 µM | Ephrin type-A receptor 2 > 30 µM | Myosin-14 > 30 µM | [4] > 30 µM | [5] > 30 µM | Midasin > 30 µM | [6] > 30 µM | [7] > 30 µM | [8] > 30 µM | [9] > 30 µM | [10] > 30 µM | Activated CDC42 kinase 1 > 30 µM | [11] > 30 µM
